The values that follow come from patent publication US12129490B2, “Methods for generating hepatocytes and cholangiocytes from pluripotent stem cells” (UNIVERSITY HEALTH NETWORK, priority 2018, dated 2024).

For one series, the system named is smad2. The note with it: versus SB431 542; cited from earlier work.
The next series deals with human and mouse ESC. The note with it: cited from earlier work.
Another series deals with Notch pathway. The series can be described thus: Hepatoblast co-culture with OP9 in presence of Notch antagonist GSI. In kind it is cell-based, human. The procedure:
RT-qPCR-based expression analysis of ALB and CK19 in the hepatoblast-derived cells following co-culture with OP9 in media supplemented with HGF (20 ng/ml), EGF (50 ng/ml), and TGFβ1 (5 ng/ml) in the presence or absence of the gamma-secretase inhibitor (GSI), an antagonist of the Notch pathway. Cells were harvested and analyzed at days 30, 33, and 36 of culture.
FIG. 15B is an RT-qPCR based expression analysis of the Notch target genes HES1, HES5 and HEY1 in hepatoblast-derived cells following culture with or without OP9. Cells were assayed at day 36 of culture. […] This value was set as 1.
To investigate the differentiation of cholangiocyte-like cells, H9-derived day 27 hepatic progenitors were co-cultured with OP 9 cells (Notch signaling donor) in the presence of HGF 20 ng/ml and EGF 50 ng/ml. The H9-derived day 27 hepatic progenitors were derived as in Example 1. When the hepatic progenitor cells received Notch signaling activation from OP-9 cells, the albumin positive cells were completely diminished and turned into CK19 positive cells with an organized branching appearance (FIG. 10a, b).
(§1) To investigate the effect of Notch signaling on cholangiocyte development, we co-cultured the hepatoblast population (day 25) with OP9 stromal cells that are known to express different Notch ligands including Jagged-1^4,5. […] To overcome this problem, we generated 3D aggregates from the day 25 monolayer cells and cultured them on the OP9 stromal cells.
(FIG. 22) Aggregates derived from both lines generated branched structures consisting of CK19^+ALB cells following co-culture with the OP9 stromal cells. As observed with the H9-derived populations, the downregulation of ALB expression and the development of these structures were NOTCH dependent events.

Another series concerns Notch signaling. The experiment in a line: 3D gel culture of chimeric hepatoblast/OP9 aggregates in presence of GSI. The following applies: 3D collagen/Matrigel gel. In kind it is cell-based, human. The procedure: H9-derived day 25 hepatoblast were mixed (aggregated) with OP9 stromal cells at a ratio of 4:1, in low cluster culture dishes for 48 hours. The chimeric aggregates were embedded in a mixture of type 1 collagen (1.2 mg/ml) and Matrigel (40%) to establish a 3D gel culture. The cultures were maintained over 2 weeks in the media containing of HGF, EGF and TGFβ1 in the presence or absence of GSI.
FIG. 16C is an RT-qPCR based expression analyses of pooled structures that developed in the 3D gels. The cultures were harvested at day 44 and the cells analyzed for expression of genes indicative of the hepatocyte (ALB, AFP and CYP3A7) and cholangiocyte (CK19, Sox9 and CFTR) lineages.
To determine if the branching observed in the OP9 co-cultures is indicative of the initial stages of bile duct development, we next established a culture system to promote the growth of 3D cellular structures. With this approach, chimeric aggregates consisting of day 25 hESC-derived cells and OP9 stromal cells (GFP^+) were cultured in a media mixture consisting of 1.2 mg/ml collagen, 40% Matrigel and HGF, EGF and TGFβ1 (FIG. 23a). Within 2 weeks of culture in these conditions, the aggregates underwent dramatic morphological changes and formed either tubular structures, hollow cysts or a mixture of both (FIG. 16a,b). The cysts were the most abundant structures in these cultures (FIG. 16b). […] The cells in the ducts also expressed the Cystic fibrosis transmembrane conductance regulator (CFTR), a transmembrane channel that is first expressed in the adult biliary tract. As with ZO-1, the CFTR protein was detected predominantly on the apical side of the duct-like structure. Western blot analyses confirmed the presence of the protein in the population generated from the chimeric aggregates (FIG. 23D). […] The lack of hepatic markers, including ALB, AFP and CYP3A7 and the upregulation of expression the cholangiocyte markers CK19, SOX9 and CFTR in these structures was confirmed by RT-qPCR analyses (FIG. 16c). […]

A further series concerns day 44 aggregates. The experiment in a line: CYP expression in day 44 aggregates with Wnt and MEK/Erk inhibition plus cAMP agonist. In kind it is cell-based, human. The following applies: together with cAMP, relative to adult liver.
The target of the next series is T1, CYP1A2 (Homo sapiens, UniProt P05177).
T1 sequence (P05177 1-516): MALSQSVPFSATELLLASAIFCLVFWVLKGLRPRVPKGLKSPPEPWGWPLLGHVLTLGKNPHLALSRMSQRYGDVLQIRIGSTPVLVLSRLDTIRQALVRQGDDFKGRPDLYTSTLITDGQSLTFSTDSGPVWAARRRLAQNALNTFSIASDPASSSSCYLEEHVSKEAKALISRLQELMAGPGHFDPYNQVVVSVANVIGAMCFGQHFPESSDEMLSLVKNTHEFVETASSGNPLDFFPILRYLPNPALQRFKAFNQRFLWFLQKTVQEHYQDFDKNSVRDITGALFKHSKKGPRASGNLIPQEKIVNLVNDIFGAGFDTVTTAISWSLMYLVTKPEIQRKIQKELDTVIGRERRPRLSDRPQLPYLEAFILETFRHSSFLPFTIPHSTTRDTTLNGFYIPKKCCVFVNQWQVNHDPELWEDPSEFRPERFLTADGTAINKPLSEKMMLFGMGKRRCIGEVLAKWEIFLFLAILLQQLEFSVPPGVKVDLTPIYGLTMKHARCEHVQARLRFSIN
The series can be described thus: CYP1A2 activity, phenacetin metabolism by HPLC.

The subject of series [1] is hPSC-derived hepatoblast aggregates. The series can be described thus: Growth factor addition to hepatoblast aggregates co-cultured on OP9 stroma. The following applies: for development of CK19+ clusters: OP9 co-culture. In kind it is cell-based, human.
Description: as §1

Another series relates to hepatic aggregates. The experiment in a line: Culture of hepatic aggregates at cAMP stage, HGF and OSM. The format is cell-based, human. The procedure:
The cell aggregates were cultured in HGF, Dex and OSM until day 32 at which point cAMP was added. […] In some experiments, HGF was also removed from the cultures when cAMP analog and/or cAMP agonist is added.

The mark [2] stands for this setting: OP9 co-culture with HGF, EGF, TGFβ1.

Values joined by “and” are separate entries in the source; they are usually repeats but may differ in a detail not shown here. Equal entries are not always repeated.

As to `Cc1cccc(-c2nn(C(=S)Nc3ccccc3)cc2-c2ccnc3ccccc23)n1` [A83-01], in the series on smad2, the “inhibition of smad2, relative potency” value is given as “more potent”.
For `O=C1Nc2cc(Br)ccc2/C1=C1/Nc2ccccc2/C1=N\O` [BIO, 6-bromo-Indirubin-3′-Oxime], in the series with human and mouse ESC, the “pluripotency of ESC” value is “maintain pluripotency”.
For the molecule `CC(C)C[C@H](NC(=O)[C@H](Cc1ccccc1)C[C@@H](O)[C@H](Cc1ccccc1)NC(=O)OC(C)(C)C)C(=O)N[C@@H](Cc1ccccc1)C(N)=O` [GSI], the “albumin and CK19 positive cells” value in the series with Notch pathway (10 μM, H9-derived day 27 progenitors with OP9, HGF 20 ng/ml, EGF 50 ng/ml) is “albumin and CK19 positive cells were found”. Further, in the series with Notch pathway (setting [2]), the ALB expression result is “blocked the downregulation”, the “development of branched structures” value is “inhibited” and the “proportion of CK19+ cells” value was “reduced”. In the series with Notch pathway (nine days of culture on OP9), the “increase in expression of Notch targets HES1, HES5 and HEY1” value is on record as “block”. Besides, the “formation of duct-like structures and cysts” value in the series with Notch signaling was “prevented”. In addition, in the series with Notch signaling (day 44), the “expression of genes associated with cholangiocyte development (CK19, Sox9 and CFTR)” value is recorded as “decrease”; the “expression of hepatocyte markers (ALB, AFP and CYP3A7)” value is reported as “increase”.
With `O=C(NOC[C@H](O)CO)c1ccc(F)c(F)c1Nc1ccc(I)cc1F` [MEK/ErK inhibitor], the “levels of CYP3A4 expression” value in the series on day 44 aggregates is on record as “comparable to those found in the adult liver”.
As for `Cc1c(OCC(F)(F)F)ccnc1C[S+]([O-])c1nc2ccccc2[nH]1` (stereo not drawn) [lansoprazole], the “increase in CYP1A2 activity on induction” value on CYP1A2 (8-Br-cAMP-treated hESC-derived cells, induction 72 hours) is reported as 3.4 fold. For the same molecule, the “inducibility of CYP1A2 activity” value on CYP1A2 (H9-derived cells) is listed as “inducible”; at CYP1A2 (cells not treated with 8-Br-cAMP), “not inducible”. On CYP1A2 (iPSC-derived cells), the “inducible CYP1A2 activity” value was “not detectable”. Besides, the “induction of CYP1A2 activity” value at CYP1A2 (two independent primary hepatocyte samples) was 18 fold and 9 fold.
On to HGF: hepatocyte growth factor, for which the “development of CK19+ clusters” value in series [1] is on record as “little effect”. For the same molecule, the survival of aggregates entry with hepatic aggregates (10 ng/ml (reduced from 20 ng/ml) when cAMP was added) is on record as “promote survival of the aggregates”.
Regarding OSM: Oncostatin M, the “induction of expression of Phase 1 CYP enzymes, in particular CYP 3A4” value in the series with hepatic aggregates (OSM maintained) is “inhibitory effect”.
Consider “TGFβ1: transforming growth factor beta 1”, for which, in series [1], the “development of CK19+ clusters” value was “increase in the size”. The cholangiocyte branching result in series [1] (hepatoblasts co-cultured with OP9) was “promotes cholangiocyte branching”.
